{"source": "paper PMC6692548", "about": "“Characterization of a phospholipid‐regulated β‐galactosidase from Akkermansia muciniphila involved in mucin degradation” (MicrobiologyOpen, 2019)", "molecules": {"B1": {"name": "Amuc_1686 (Akkermansia muciniphila ATCC BAA-835) (protein)", "chain": "AAPMPLPESNDGARHVFSTNQENFLMDGKPVKIISGEMHYPRVPRQHWKDRFQRIKAMGMNTVCTYLFWNVHEPEPGKWDFSGNLDFVEFIKEAQKAGLWVIVRPGPYVCAEWEFGGFPGWLLKDEDLKVRSQDPRFLEPAMAYLKKVCSMLEPLQITKGGPIIMAQVENEYGSYGSDKDYVKKHLDVIRKELPGVVPFTSDGPNDWMIKNGTLPGVVPAMNFGGGAKGAFANLEKHKGKTPRINGEFWVGWFDHWGKPKNGGSTEGFNRDLKWMLENNVSPNLFMAHGGTSFGFMNGANWEGAYTPDVTNYDYGAPISENGTLTDRYRTFRQTIQDYYGDTYKLPEPPAQPEMMELPPITFTETAGMFSRLPQPVIRKEPVHMEALGQSLGFILYRTKVNGPVKGELKMNNMQDRAIVYVDGKRQGAADRRYKQDSCDIVIPSGLHTVDIFVENMGRINFGGQIQGERKGIRGPITLDGKKLENFLIYNFPCKGVELIPFSGKKPAGDQPVFHRGYFNVSNPKDTYLDMRDGWKKGVVWVNGRNLGRFWFIGSQQALYCPGEYLKPGKNEIVVLDVDGGSGTVKGVKEAIYEVNRDPAMADVFRVGKPVAPAAGQLVHKGSFAKGADQQEIKFRAPVQARYIAIVSKNAHDNGPHAAIAELNFLDASGNLLPREQWSVVYADSHETTGEAAQAGLVMDNQPTTYWHTKWQGDNPRHPHMIVLDLGKVQKLSGFRYLPRQDRENGRIKDYEVYASPKPFKPAK"}}, "key": {"Amuc_1686": {"biological_target": "T1, Amuc_1686 (Akkermansia muciniphila, UniProt B2UM60)", "T1 construct": "GH35 beta-galactosidase with C-terminal truncated discoidin (F5/8 type C) domain; signal peptide removed (predicted cleavage between 17 and 18), N-terminal Strep-tag kept (pASK-IBA5), E. coli BL21(DE3); 87 kDa tagged (86 kDa encoded); monomer; primers start at codons AAPMPF and end in FKPAK-stop", "T1 sequence (B2UM60 18-780)": "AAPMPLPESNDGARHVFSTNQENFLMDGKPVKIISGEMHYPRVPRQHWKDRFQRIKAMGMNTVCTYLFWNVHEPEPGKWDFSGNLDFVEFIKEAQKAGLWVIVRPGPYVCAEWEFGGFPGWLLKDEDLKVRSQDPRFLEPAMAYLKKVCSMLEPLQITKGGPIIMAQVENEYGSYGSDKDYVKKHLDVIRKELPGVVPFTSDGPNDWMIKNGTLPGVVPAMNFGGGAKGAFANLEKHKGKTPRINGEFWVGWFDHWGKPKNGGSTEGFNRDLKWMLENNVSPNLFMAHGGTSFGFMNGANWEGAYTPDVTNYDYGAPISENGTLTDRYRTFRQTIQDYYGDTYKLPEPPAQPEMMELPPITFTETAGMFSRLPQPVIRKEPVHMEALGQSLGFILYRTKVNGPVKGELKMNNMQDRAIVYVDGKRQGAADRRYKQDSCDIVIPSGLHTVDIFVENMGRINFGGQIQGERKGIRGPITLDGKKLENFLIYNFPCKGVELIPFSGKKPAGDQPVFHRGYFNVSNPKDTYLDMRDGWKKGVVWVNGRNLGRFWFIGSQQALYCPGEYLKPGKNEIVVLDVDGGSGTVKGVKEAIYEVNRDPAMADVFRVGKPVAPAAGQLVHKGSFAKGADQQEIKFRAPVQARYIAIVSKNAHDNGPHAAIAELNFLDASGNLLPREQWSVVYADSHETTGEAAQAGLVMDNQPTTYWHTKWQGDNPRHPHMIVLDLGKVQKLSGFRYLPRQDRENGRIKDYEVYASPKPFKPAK", "assay": "photometric 4-nitrophenol release", "type": "biochemical", "settings": "5 mM 4-nitrophenyl beta-D-galactopyranoside; 50 mM combined buffer pH 7.5, 37 °C; lipid added in methanol; non-competitive; acyl chains not given"}, "Amuc_1686_short": {"biological_target": "T2, Amuc_1686_short (Akkermansia muciniphila, UniProt B2UM60)", "T2 construct": "gene Amuc_1686; signal peptide removed, last 107 amino acids (C-terminal discoidin domain) deleted; N-terminal Strep-tag (pASK-IBA5), E. coli BL21(DE3); primers start at codons AAPMPF and end in DNGPH-stop", "T2 sequence (B2UM60 18-673)": "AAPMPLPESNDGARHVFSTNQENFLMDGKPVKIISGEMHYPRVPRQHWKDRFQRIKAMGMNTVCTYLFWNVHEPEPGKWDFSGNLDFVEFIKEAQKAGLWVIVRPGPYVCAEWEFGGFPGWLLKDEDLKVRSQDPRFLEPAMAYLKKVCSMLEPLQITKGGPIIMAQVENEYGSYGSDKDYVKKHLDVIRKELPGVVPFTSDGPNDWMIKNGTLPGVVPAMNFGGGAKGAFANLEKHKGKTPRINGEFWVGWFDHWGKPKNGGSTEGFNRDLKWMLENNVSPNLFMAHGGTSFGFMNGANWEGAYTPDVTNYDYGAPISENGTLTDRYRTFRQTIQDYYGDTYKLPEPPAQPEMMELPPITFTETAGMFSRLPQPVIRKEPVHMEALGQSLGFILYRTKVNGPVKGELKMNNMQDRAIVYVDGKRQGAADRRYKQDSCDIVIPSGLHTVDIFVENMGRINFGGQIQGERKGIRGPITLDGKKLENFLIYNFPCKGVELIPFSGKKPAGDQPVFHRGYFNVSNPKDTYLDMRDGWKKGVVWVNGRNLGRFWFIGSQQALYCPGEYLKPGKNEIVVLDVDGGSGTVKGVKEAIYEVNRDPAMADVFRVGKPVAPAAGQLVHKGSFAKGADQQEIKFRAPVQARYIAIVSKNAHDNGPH", "assay": "photometric 4-nitrophenol release", "type": "biochemical", "settings": "5 mM substrate; 50 mM combined buffer pH 7.5, 37 °C"}, "purified protein": {"substrate": "O=[N+]([O-])c1ccc(O[C@@H]2O[C@H](CO)[C@H](O)[C@H](O)[C@H]2O)cc1", "assay": "purified protein", "settings": "50 mM combined buffer pH 7.5, 65 °C"}}}
{"molecule": "phosphatidylglycerol [PG]", "values": [{"measurement": "IC50", "setting": "Amuc_1686", "result": "1 ± 0.1", "unit": "µM"}]}
{"molecule": "O=[N+]([O-])c1ccc(O[C@@H]2O[C@H](CO)[C@H](O)[C@H](O)[C@H]2O)cc1", "note": "[para‐nitrophenyl‐β‐D‐galactopyranoside]", "values": [{"measurement": "photometric 4-nitrophenol release", "setting": "Amuc_1686_short", "result": "the shortened variant exhibited a slightly decreased enzymatic activity"}]}
{"molecule": "phosphatidylserine [PS]", "values": [{"measurement": "IC50", "setting": "Amuc_1686", "result": "29.3 ± 1.5", "unit": "µM"}]}
{"molecule": "lysophosphatidic acid [LPA]", "values": [{"measurement": "IC50", "setting": "Amuc_1686", "result": "13.6 ± 10.6", "unit": "µM"}]}
{"molecule": "phosphatidic acid [PA]", "values": [{"measurement": "IC50", "setting": "Amuc_1686", "result": "4.3 ± 0.2", "unit": "µM"}]}
{"molecule": "B1", "values": [{"measurement": "Km", "setting": "purified protein", "result": "500 ± 300", "unit": "µM"}, {"measurement": "kcat", "setting": "purified protein", "result": "530.3 ± 87.1", "unit": "s⁻¹"}]}
